Patent US4904673A, “Agent for treating bradycardia and bradyarrhythmia” (Dr. Karl Thomae, GmbH, priority 1988, dated 1990)

Assays:
[1] = molecular target: muscarinic receptors in cerebral cortex; assay: Receptor binding test in vitro, 3H-NMS displacement, cerebral cortex homogenate; conditions: rat cerebral cortex homogenate 1:3000; 0.3 nanomolar 3H-NMS; 30° C., 45 minutes; read-out: Receptor Binding Tests IC50 Cortex
Description: The organs were donated by male Sprague-Dawley rats weighing 180-220 g. After the heart and subman-dibular gland and cerebral cortex had been removed, all other steps were carried out in ice cold Hepes HCl buffer (pH 7.4; 100 millimolar NaCl, 10 millimolar MgCl2). The whole heart was cut up with scissors. All the organs were then homogenised in a Potter apparatus.
(§1) For the binding test the homogenised organs were diluted as follows:
The homogenised organs were incubated at a certain concentration of the radioligand and at a series of concentrations of the non-radioactive test substances in an Eppendorf centrifuge tube at 30° C. Incubation lasted 45 minutes. The radioligand used was 0.3 nanomolar ^3 H-N-methylscopolamine (^3 H-NMS). Incubation was ended by the addition of ice cold buffer followed by vaccum filtration. The filters were rinsed with cold buffer and their radioactivity was determined. It represents the sum of specific and non-specific binding of ^3 H-NMS.
The proportion of non-specific binding was defined as the radioactivity which was bound in the presence of 1 micromolar quinuclidinyl-benzylate. Each measurement was taken four times. The IC^50 values of the non-labelled test substances were determined graphically. They represent that concentration of test substance at which the specific binding of ^3 H-NMS to the muscarinic receptors in the various organs was inhibited by 50%.

[2] = molecular target: T1, muscarinic receptors in heart (Rattus norvegicus, UniProt P10980); assay: Receptor binding test in vitro, 3H-NMS displacement, whole heart homogenate; conditions: rat whole heart homogenate 1:400; 0.3 nanomolar 3H-NMS; 30° C., 45 minutes; read-out: Receptor Binding Tests IC50 Heart
T1 construct: The whole heart was cut up with scissors; from tissue; host or cells: whole heart of male Sprague-Dawley rats, homogenate diluted 1:400
T1 sequence (P10980 1-466): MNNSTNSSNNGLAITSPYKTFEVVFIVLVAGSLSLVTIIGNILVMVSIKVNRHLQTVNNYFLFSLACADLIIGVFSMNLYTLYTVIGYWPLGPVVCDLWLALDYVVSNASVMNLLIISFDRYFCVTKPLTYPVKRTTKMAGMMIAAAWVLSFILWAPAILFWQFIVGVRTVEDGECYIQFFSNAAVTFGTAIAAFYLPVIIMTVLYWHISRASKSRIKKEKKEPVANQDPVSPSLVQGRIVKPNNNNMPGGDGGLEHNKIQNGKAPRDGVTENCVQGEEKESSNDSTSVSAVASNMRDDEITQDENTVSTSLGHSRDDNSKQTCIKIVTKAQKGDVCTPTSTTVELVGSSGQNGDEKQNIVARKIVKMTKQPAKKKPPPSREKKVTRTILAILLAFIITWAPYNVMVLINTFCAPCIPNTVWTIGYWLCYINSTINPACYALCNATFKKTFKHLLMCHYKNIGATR
Description: (§2) The organs were donated by male Sprague-Dawley rats weighing 180-220 g. […] The whole heart was cut up with scissors. All the organs were then homogenised in a Potter apparatus.
as §1
(§3) Incubation lasted 45 minutes. The radioligand used was 0.3 nanomolar ^3 H-N-methylscopolamine (^3 H-NMS). […] The filters were rinsed with cold buffer and their radioactivity was determined. It represents the sum of specific and non-specific binding of ^3 H-NMS.
(§4) Each measurement was taken four times. […] They represent that concentration of test substance at which the specific binding of ^3 H-NMS to the muscarinic receptors in the various organs was inhibited by 50%.

[3] = molecular target: T2, muscarinic receptors in submandibular gland (Rattus norvegicus, UniProt P08483); assay: Receptor binding test in vitro, 3H-NMS displacement, submandibular gland homogenate; conditions: rat submandibular gland homogenate 1:400; 0.3 nanomolar 3H-NMS; 30° C., 45 minutes; read-out: Receptor Binding Tests IC50 Submandibular gland
T2 construct: All the organs were then homogenised in a Potter apparatus; from tissue; host or cells: submandibular gland of male Sprague-Dawley rats, homogenate diluted 1:400
Description: as §2, §1
Submandibular gland 1:400
as §3, §4

[4] = system: acetylcholine effect on heart rate; assay: Inhibition of the effect of acetylcholine on heart rate in anaesthetised guinea pigs; format: in vivo, guinea pig; conditions: Cavia porcellus, iv, 5 min, 10 microgram/kg acetylcholine i.v. and intra-arterially 5 minutes after test substance, heart rate by ECG, read-out: -log ED50 Heart (converted)
Description: (§5) Substances with antimuscarinic properties inhibit the effects of agonists supplied exogenically or of acetylcholine, which is released from cholinergic nerve endings. The following is a description of an "in vivo" method which is suitable for the detection of cardioselective antimuscarinic agents.
(§6) Inhibition of the effect of acetylcholine on the bladder, bronchi and heart rate in guinea pigs
(§7) 5 minutes after the administration of the test substance, 10 microgram/kg of acetylcholine were simultaneously injected intravenously and intra-arterially into anaesthetised guinea pigs. The heart rate was recorded directly by extracorporeal derivation of the ECG, as were the expiration resistance according to Konzett-Rossler and the contraction of the exposed bladder. In order to determine the inhibition of the acetylcholine activity on the organs under investigation, dosage/activity curves were recorded and from them -log ED50 values were determined. For the results see Table II.

[5] = system: acetylcholine effect on bronchi; assay: Inhibition of the effect of acetylcholine on bronchi (expiration resistance, Konzett-Rossler) in anaesthetised guinea pigs; format: in vivo, guinea pig; conditions: Cavia porcellus, iv, 5 min, 10 microgram/kg acetylcholine i.v. and intra-arterially 5 minutes after test substance, read-out: -log ED50 Bronchi (converted)
Description: as §5, §6, §7

[6] = system: acetylcholine effect on bladder; assay: Inhibition of the effect of acetylcholine on contraction of the exposed bladder in anaesthetised guinea pigs; format: in vivo, guinea pig; conditions: Cavia porcellus, iv, 5 min, 10 microgram/kg acetylcholine i.v. and intra-arterially 5 minutes after test substance, read-out: -log ED50 Bladder (converted)
Description: as §5, §6, §7

T2 sequence (P08483 whole entry): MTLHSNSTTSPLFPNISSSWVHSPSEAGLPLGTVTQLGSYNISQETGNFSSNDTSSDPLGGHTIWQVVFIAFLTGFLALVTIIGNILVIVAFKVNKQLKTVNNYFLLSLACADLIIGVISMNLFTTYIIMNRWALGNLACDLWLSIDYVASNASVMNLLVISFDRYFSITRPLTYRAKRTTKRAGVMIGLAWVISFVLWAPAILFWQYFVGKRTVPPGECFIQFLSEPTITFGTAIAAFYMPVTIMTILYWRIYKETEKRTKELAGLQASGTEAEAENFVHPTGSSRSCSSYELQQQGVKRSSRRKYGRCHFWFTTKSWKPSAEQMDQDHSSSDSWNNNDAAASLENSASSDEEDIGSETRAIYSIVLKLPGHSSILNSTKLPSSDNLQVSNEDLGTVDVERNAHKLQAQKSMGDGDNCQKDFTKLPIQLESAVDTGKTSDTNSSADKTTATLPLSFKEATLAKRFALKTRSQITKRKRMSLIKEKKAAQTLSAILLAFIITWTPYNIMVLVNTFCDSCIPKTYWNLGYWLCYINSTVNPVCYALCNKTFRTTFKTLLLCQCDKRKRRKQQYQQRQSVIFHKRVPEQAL

Compound	IC50 [1]	IC50 [2]	IC50 [3]	ED50 [4]	ED50 [5]	ED50 [6]
CN1[C@@H]2CC[C@H]1C[C@@H](OC(=O)C(CO)c1ccccc1)C2 (stereo partly shown) [B, atropine, reference compound]	2 nM	–	–	–	–	–
CCN(CCCC(=O)N1CCC(C(=O)N(C)C)CC1)C(C)Cc1ccc(OC)cc1 (racemic) [A, (±)-1-[4-[ethyl[2-(4-methoxyphenyl)-1-methylethyl]amino]-1-oxobutyl]-N,N-dimethyl-4-piperidine carboxamide]	50 nM	10 nM	300 nM	0.0646 µmol/kg	0.148 µmol/kg	0.513 µmol/kg
